One test has as its system stage 3 immature neurons. Kind of test: HD-DoE 8-factor experiment for stage 4 recipe (FIG. 27, 28, 31). In kind it is cell-based, human. Conditions: for impact on expression of NR4A2: 8-factor model / dynamic profile; for expression level of PITX3 in absence of the factor / expression level of NR4A2 in absence of the factor: stage 4 recipe, other factors present; for expression level of PITX3 in absence of the factor: 40 with all factors; for expression level of NR4A2 in absence of the factor: 400 with all factors; for factor contribution: model maximized for NR4A2. Here is the method:
To further differentiate the cells to a mature neuronal identity, additional HD-DoE experiments were performed on the cells that were cultured in stage 1, stage 2 and stage 3 differentiation media. After 4 days, gene expression of cells in different combinatorial conditions were investigated. At this time, we focused on maximal expression of more mature dopaminergic genes such as NR4A2, PITX3 and TH (Tiklová et al. (2020) Nat Commun. 11:2434; Fiorenzano et al. (2021) Nat Commun., 12:7302). In one model, cells were treated with a combinatorial matrix with eight inputs including CHIR99021, BDNF, GDNF, Rosiglitazone, GW7647, DBZ and heparin.
(§1) To assess the impact of elimination of each validated factor identified in Example 5 for the stage 3 and stage 4 recipes, we used dynamic profile analysis and compared the expression level of genes of interest in absence of each finalized factor while others are present.
In the stage 4 recipe, each of six finalized factors were excluded while other factors were present and the expression levels of NR4A2 and PITX3 were assessed compared to the presence of all factors.

Test [1] has as its system stage 2 neural progenitors. The experiment in a line: HD-DoE 12-factor model for stage 3 recipe (FIG. 19-23, 29). Format: cell-based, human.
From the text: To develop the neuronal differentiation recipes, the impact of various agonist and antagonists (effectors) on maturation of MB neural progenitors was investigated using the HD-DoE method described in Example 1. These effectors were chosen based on available literature on developmental biology, differentiation of stem cells as well as mouse and human single cell RNA-seq data from midbrain neurons at the time.
To engineer the recipe of stage 3 of differentiation, cells were first cultured in the stage 1 and stage 2 media as described herein, then they were treated with combinations of 8 or 12 factors for 3 days and the gene expression of cells in each condition was modeled. To guide the cells towards a subtype of midbrain dopaminergic neurons that reside in Substantia Nigra pars compacta (SNc) region of the brain, neural progenitors need to be SOX6^+ (Pereira et al. (2021) Cell Rep. 37:109975 Oosterveen et al. (2021) Stem Cell Reports 16:2718-2735 Poulin et al. (2020) Trends Neurosci. 43:155-169). CORIN, NGN2 and MSX1 are other markers involved in neurogenesis of dopaminergic neurons originating from floorplate region of developing midbrain (Wang et al. (2020) Cells 9:1489; Samata et al. (2016) Nat Commun. 7:13097; Ono et al. (2007) Development 134:3213-3225; Prakash et al. (2006) J. Physiol. 575:403410).
Therefore, we focused on maximizing expression of SOX6, CORIN, NGN2 and MSX1 in modeling experiments. One of the 12-factor models, the results of which are shown in FIG. 19, including LDN193189, AGN193109, BMP7, TTNPB, PD0325901, A8301, MHY1485, CHIR99021, XAV939, SANT-1, Purmorphamine and MK2206, provided a combination set that could maximize expression level of CORIN to more than 2000.
as §1
In the stage 3 recipe, each of the finalized factors were removed in their respective models while other factors were present and the expression level of genes of interest was assessed compared to presence of all factors. When AGN193109 was excluded, level of all CORIN, KCNJ6, MSX1 and SOX6 decreased from 900 to 450, 50 to 35, 140 to 110 and 105 to 60, respectively. […] When PD0325901 was removed, expression levels of CORIN and KCNJ6 increased to 1200 and 70 while levels of MSX1 and SOX6 decreased to 105 and 20. In the absence of CHIR99021, the expression level of CORIN was again increased to 1200 while the level of KCNJ6 and MSX1 dropped to 50 and 115. […] Therefore, it was decided to include this compound in the final recipe. […] Therefore, CHIR99021 was also included in the final recipe.

Test [2] concerns stage 2 neural progenitors. The experiment in a line: HD-DoE another 12-factor model for stage 3 recipe (FIG. 24, 25, 30). Format: cell-based, human. As to the method: In another 12-factor model, additional factors including Activin A, Takinib (TAK inhibitor), FGF8b, AZD3147 (mTOR antagonist), MHY1485 (mTOR agonist), and Yhhu-3792 (Notch agonist) were tested. Some of the factors from previous model (BMP7, A 8301, LDN193189, PD0325901, MK2206 and DBZ) were also included.
as §1
In another model, to determine the combinatorial effect of AZD3147 and DBZ on gene profile of cells in presence of other factors of final recipe, the expression levels of SOX6 and MSX1 were compared in the absence of each of the factors in the presence of PD0325901 and BMP7. These two compounds were the only final compounds that were included in inputs of this experimental model The results are shown in FIG. 30A and FIG. 30B. […] When DBZ was removed, the level of SOX6 and MSX1 both decreased to 140 and 35, respectively.

For test [3], the system named is human pluripotent stem cells. The experiment in a line: HD-DoE 13-factor experiment for stage 1 recipe, gene expression modeled after 3-day treatment; dynamic profile and factor criticality analysis. In kind it is cell-based. From the text: This example utilizes a method of High-Dimensional Design of Experiments (HD-DoE), as previously described in Bukys et al. (2020) Iscience 23:101346. The method employs computerized design geometries to simultaneously test multiple process inputs and offers mathematical modeling of a deep effector/response space. The method allows for finding combinatorial signaling inputs that control a complex process, such as during cell differentiation. It allows testing of multiple plausible critical process parameters, as such parameters impact output responses, such as gene expression. Because gene expression provides hallmark features of the phenotype of, for example, a human cell, the method can be applied to identify, and understand, which signaling pathways control cell fate. In the current example, the HD-DOE method was applied with the intent to find conditions for induction of midbrain neural progenitor-expressed genes, directly from the pluripotent stem cell state.
To develop the recipe for each stage, the impact of agonists and antagonists of multiple signaling pathways (referred to herein as “effectors”) on the expression of two sets of 53 pre-selected genes after a 3-day treatment was tested and modeled. These effectors are small molecules or proteins that are commonly used during stepwise differentiation of stem cells to specific fates. The choice of the effectors to test was based on current literature on neural induction in the midbrain region of the developing brain and differentiation of stem cells to neural progenitors.
To test the effectors, experiments with at least 8 factors were designed that can assess the response of cells to 48 or more different combinations of effectors in a range of concentrations. To analyze the models, we focused on expression of genes expressed in the midbrain region, including OTX2, DMBX1, FOXA2, LMX1A, and on the absence of GBX2, which is a hindbrain marker. The impact of each effector on gene expression level is defined by a parameter called factor contribution that is calculated for each effector during the modeling.
To identify the recipe of stage 1 of differentiation, cells were treated with various effectors for 3 days and the gene expression of cells was modeled. […] This model consisted of 13 factors including LDN193189, PD173074, BLU9931, Purmorphamine, SC79, MK2206, ZM336372, PD0325901, CHIR99021, XAV939, UCLA-gp130, Tofacitinib and GO 6983.
To assess the impact of elimination of each validated factor, we used dynamic profile analysis and compared the expression level of genes of interest in absence of each finalized factor while others are present.
In the stage 1 recipe, each of the five finalized factors were removed while the other four factors were present and the expression levels of OTX2, DMBX1, FOXA2 and LMX1A was assessed compared to the levels in the presence of all five factors (FIG. 11A-B). […] Expression level of DMBX1 increased in absence of LDN193189, however values of OTX2, FOXA2 and LMX1A decreased.

Several values for one entry are separate records, joined by “and”; a condition that tells them apart may be missing. Equal values may be shown once.

With `NCCc1ccc(O)c(O)c1` [Dopamine], in the test with stage 3 immature neurons, the “impact on expression of NR4A2” value is “positive regulatory impact”, the “expression level of PITX3 in absence of the factor” value worked out at 20 and the “expression level of NR4A2 in absence of the factor” value (“expression level of NR4A2” below) was ~0.
For `CC(C)(Sc1ccc(CCN(CCCCC2CCCCC2)C(=O)NC2CCCCC2)cc1)C(=O)O` [GW7647] the same measures were “positive regulatory impact”, “lower expression levels” and “lower expression levels”.
For the molecule `O=C(NOC[C@H](O)CO)c1ccc(F)c(F)c1Nc1ccc(I)cc1F` [PD0325901], the factor contribution in test [1] (model optimized for maximum expression of KCNJ6, positive regulators) is recorded as 10.9; in test [1] (model optimized for maximum expression of SOX6, positive impact) it was 13.5; in test [3] (model optimized for maximum expression of OTX2, positive impact, 3-day treatment) it was 18.1. Also, in test [1] (stage 3 recipe, other factors present, 50 with all factors), the “expression level of KCNJ6 in absence of the factor” value turned out to be 70. In test [1] (stage 3 recipe, other factors present, 105 with all factors), the “expression level of SOX6 in absence of the factor” value stood at 20. The “expression level of MSX1 in absence of the factor” value in test [1] (stage 3 recipe, other factors present, 140 with all factors) is reported as 105. The “expression level of CORIN in absence of the factor” value in test [1] (stage 3 recipe, other factors present, 900 with all factors) was determined as 1200. The “level of MSX1 in absence of the factor” value in test [2] (AZD3147, DBZ, PD0325901 and BMP7 set, 45 with all factors) turned out to be 40. In addition, the “level of SOX6 in absence of the factor” value in test [2] (AZD3147, DBZ, PD0325901 and BMP7 set, 185 with all factors) is recorded as 165. Further, the “impact on expression of SOX6” value in test [2] (dynamic profile, 12 effectors) was “positive impact”. Besides, the “impact on expression of OTX2” value in test [3] (dynamic profile, 13 effectors) was “positive impact”. Also, the “expression level of LMX1A in absence of the factor” value in test [3] (stage 1 recipe, other four factors present, 300 with all five factors) amounted to 500. Moreover, the “expression level of FOXA2 in absence of the factor” value in test [3] (stage 1 recipe, other four factors present, 600 with all five factors) amounted to 700. Moreover, the “expression level of DMBX1 in absence of the factor” value in test [3] (stage 1 recipe, other four factors present, 3000 with all five factors) is 900.
Consider `CN(CCOc1ccc(CC2SC(=O)NC2=O)cc1)c1ccccn1` (centres unmarked) [Rosiglitazone], for which the factor contribution in the test with stage 3 immature neurons (negative impact) came out at 13.6.
For heparin, in the test on stage 3 immature neurons, the “impact on expression of NR4A2” value is “positive regulatory impact”, the “expression level of PITX3 in absence of the factor” value is 30 and the “expression level of NR4A2” value is on record as “did not significantly change”.

B1: GDNF: glial cell line-derived neurotrophic factor, GDNF agonist (protein, UniProt P39905 78-211, looked up)
Glial cell line-derived …: SPDKQMAVLPRRERNRQAAAANPENSRGKGRRGQRGKNRGCVLTAIHLNVTDLGLGYETKEELIFRYCSGSCDAAETTYDKILKNLSRNRRLVSDKVGQACCRPIAFDDDLSFLDDNLVYHILRKHSAKRCGCI
Take B1: in the test with stage 3 immature neurons, the “impact on expression of NR4A2” value is “positive regulatory impact”, the “expression level of PITX3 in absence of the factor” value is on record as 25 and the “expression level of NR4A2” value worked out at 300.

B2: BDNF: brain-derived neurotrophic factor, BDNF agonist (protein, UniProt P23560 19-247, looked up)
Neurotrophic factor BDNF …: APMKEANIRGQGGLAYPGVRTHGTLESVNGPKAGSRGLTSLADTFEHVIEELLDEDQKVRPNEENNKDADLYTSRVMLSSQVPLEPPLLFLLEEYKNYLDAANMSMRVRRHSDPARRGELSVCDSISEWVTAADKKTAVDMSGGTVTVLEKVPVSKGQLKQYFYETKCNPMGYTKEGCRGIDKRHWNSQCRTTQSYVRALTMDSKKRIGWRFIRIDTSCVCTLTIKRGR
Take B2: in the test with stage 3 immature neurons, the “impact on expression of NR4A2” value is “positive impact”, the “expression level of PITX3 in absence of the factor” value is on record as 10 and the “expression level of NR4A2” value was 100. Moreover, the “impact on expression level of PITX3” value in the test on stage 3 immature neurons (dynamic profile, 8 effectors) is “positive impact”. Moreover, the factor contribution in the test with stage 3 immature neurons (positive regulatory impact, after 4 days) was 17 and 17.1.
